System: CD1 female mouse brain lipidome
Assay: Brain-region lipid levels (HPLC/MS/MS lipidomics) 2 h after single i.p. 3 mg/kg CP 55,940 vs vehicle
Assay type: in vivo
Set-up: N-arachidonoyl phenylalanine level, Mean / N-stearoyl tryptophan level, Mean / N-stearoyl proline level, Mean / N-stearoyl leucine level, Mean / N-stearoyl phenylalanine level, Mean / N-stearoyl serine level, Mean / N-stearoyl methionine level, Mean: unit: moles per gram
Conditions: brainstem
Protocol: The Bloomington Institutional Animal Care and Use Committee of Indiana University reviewed and approved the animal procedures. Female mice from the CD1 strain were utilized to match our study examining THC’s effects on the brain lipidome ([Leishman et al., 2018]). Mice were given a single i.p. injection of either 3 mg/kg CP or 1:1:18 cremophor:ethanol:saline vehicle (please refer to the section “3 mg/kg CP Is Relevant for Synthetic Cannabinoid Abuse and Has Stronger Effects on the Female Mouse Brain Lipidome During Adolescence” for a justification of dose and use of female mice). Three different age groups were given injections: PND 35 and PND 50 adolescents, and adult mice (PND 113). At least eight mice in each age group received CP and at least eight received vehicle. Matching the THC study time course ([Leishman et al., 2018]), mice were sacrificed via rapid decapitation 2 h after injection. Brains were immediately removed and flash-frozen in liquid nitrogen, and then stored at -80°C until dissections were performed. Brains were dissected on an ice-cold dissection plate into the following regions: STR, HIPP, CER, THAL, CTX, HYP, MID, and STEM. These abbreviations for these brain areas will be used exclusively when discussing the results generated by these specific dissections. Each dissected area was immediately placed in liquid nitrogen and then stored at -80°C until used for lipid extraction.
Tissue extracts were performed as previously described ([Bradshaw et al., 2006]; [Stuart et al., 2013]; [Raboune et al., 2014]; [Leishman et al., 2016a],[b], [2017], [2018]). First, samples were shock frozen in liquid nitrogen, weighed, and transferred to a centrifuge tube. The mass of the largest sample was multiplied by 50 to determine how many milliliters of HPLC-grade methanol (Fisher, Fair Lawn, NJ, United States) to add. Then, samples were spiked with 500 pmol deuterium-labeled NAGly (d8NAGly; Cayman Chemical, Ann Arbor, MI, United States). Samples were placed on ice in darkness for 2 h then individually homogenized and centrifuged at 19,000 × g for 20 min at 20°C. Supernatants were diluted with HPLC water (purified in house) to make a solution of 75% water, 25% supernatant. Lipids were partially purified on C18 solid phase extraction columns (Agilent, Palo Alto, CA, United States). A series of four elutions with 1.5 mL of 60%, 75%, 85%, and 100% methanol were collected ([Stuart et al., 2013]; [Leishman et al., 2016a],[b], [2018]).
As previously described ([Bradshaw et al., 2006]; [Tan et al., 2006]; [Smoum et al., 2010]; [Stuart et al., 2013]; [Tortoriello et al., 2013]; [Raboune et al., 2014]; [Leishman et al., 2016a],[b], [2017], [2018]), samples were analyzed using an Applied Biosystems API 3000 triple quadrupole mass spectrometer with electrospray ionization (Foster City, CA, United States). Using an Agilent XDB-C18 reversed phase analytical column and optimized mobile phase gradients, 20 μL from each elution were chromatographed. Two Shimadzu 10ADvp pumps (Columbia, MD, United States) provided the pressure for gradient elution. Mobile phase A: 20% methanol, 80% water (v/v) and 1 mM ammonium acetate (Sigma, St. Louis, MO, United States). Mobile phase B: 100% methanol, 1 mM ammonium acetate. Every method run began with 0% mobile phase B, reached 100% mobile phase B flowing at 0.2 mL/min, and gradually returned to 0% mobile phase B.
This screening library will be referred to as the lipidome when discussing data from this study. HPLC/MS/MS data were analyzed using Analyst software (Applied Biosystems) ([Bradshaw et al., 2006]; [Tan et al., 2006]; [Stuart et al., 2013]; [Tortoriello et al., 2013]; [Raboune et al., 2014]; [Leishman et al., 2016a],[b], [2017], [2018]). Chromatograms (Supplementary Figure 3) were generated by determining the retention time of analytes from the analytical column with a [M-1] or [M+1] parent peak and a fragmentation peak corresponding to the programmed values. […]

[1] = PND 50, 3 mg/kg CP 55,940, one-way ANOVA p .000
[2] = PND 50, 3 mg/kg CP 55,940, one-way ANOVA p .001
[3] = PND 50, 3 mg/kg CP 55,940, one-way ANOVA p .002
[4] = PND 50, 3 mg/kg CP 55,940, one-way ANOVA p .003
[5] = PND 50, 3 mg/kg CP 55,940, one-way ANOVA p .006
[6] = PND 50, 3 mg/kg CP 55,940, one-way ANOVA p .007
[7] = PND 50, 3 mg/kg CP 55,940, one-way ANOVA p .008
[8] = PND 50, 3 mg/kg CP 55,940, one-way ANOVA p .014
[9] = PND 50, 3 mg/kg CP 55,940, one-way ANOVA p .015
[10] = PND 50, 3 mg/kg CP 55,940, one-way ANOVA p .018
[11] = PND 50, 3 mg/kg CP 55,940, one-way ANOVA p .023
[12] = PND 50, 3 mg/kg CP 55,940, one-way ANOVA p .041
[13] = PND 50, 3 mg/kg CP 55,940, one-way ANOVA p .043

## CCCCCCC(C)(C)c1ccc([C@@H]2C[C@H](O)CC[C@H]2CCCO)c(O)c1 [CP 55,940]
PND 50, 3 mg/kg CP 55,940
  N-arachidonoyl glycine level, Mean: 9.26E-12
  N-arachidonoyl methionine level, Mean: PISSR
  N-arachidonoyl phenylalanine level, Mean: 3.18E-13
  N-arachidonoyl proline level, Mean: BDL
  N-arachidonoyl serine level, Mean: 5.36E-12
  N-arachidonoyl taurine level, Mean: 1.14E-11
  N-arachidonoyl tryptophan level, Mean: BDL
  N-arachidonoyl tyrosine level, Mean: 2.42E-13
  N-docosahexaenoyl GABA level, Mean: 9.05E-13
  N-docosahexaenoyl alanine level, Mean: PISSR
  N-docosahexaenoyl ethanolamine level, Mean: 3.73E-11
  N-docosahexaenoyl glycine level, Mean: 1.5E-12
  N-docosahexaenoyl leucine level, Mean: 1.24E-13
  N-docosahexaenoyl methionine level, Mean: PISSR
  N-docosahexaenoyl phenylalanine level, Mean: 1.89E-13
  N-docosahexaenoyl proline level, Mean: BDL
  N-docosahexaenoyl serine level, Mean: 1.33E-11
  N-docosahexaenoyl tryptophan level, Mean: BDL
  N-docosahexaenoyl tyrosine level, Mean: 4.65E-13
  N-docosahexaenoyl valine level, Mean: BDL
  N-linoleoyl GABA level, Mean: 6.01E-13
  N-linoleoyl alanine level, Mean: 1.01E-13
  N-linoleoyl ethanolamine level, Mean: 3.38E-11
  N-linoleoyl glycine level, Mean: 4.12E-13
  N-linoleoyl leucine level, Mean: 4.41E-14
  N-linoleoyl methionine level, Mean: PISSR
  N-linoleoyl phenylalanine level, Mean: PISSR
  N-linoleoyl proline level, Mean: BDL
  N-linoleoyl serine level, Mean: 6.34E-11
  N-linoleoyl tryptophan level, Mean: BDL
  N-linoleoyl tyrosine level, Mean: PISSR
  N-linoleoyl valine level, Mean: BDL
  N-nervonoyl valine level, Mean: BDL
  N-oleoyl GABA level, Mean: 3.95E-12
  N-oleoyl alanine level, Mean: 1.3E-12
  N-oleoyl dopamine level, Mean: BDL
  N-oleoyl ethanolamine level, Mean: 7.29E-11
  N-oleoyl glycine level, Mean: 5.38E-12
  N-oleoyl leucine level, Mean: 4.93E-13
  N-oleoyl methionine level, Mean: 1.84E-13
  N-oleoyl phenylalanine level, Mean: 7.71E-13
  N-oleoyl proline level, Mean: BDL
  N-oleoyl serine level, Mean: 1.1E-10
  N-oleoyl tryptophan level, Mean: BDL
  N-oleoyl tyrosine level, Mean: 2.91E-13
  N-oleoyl valine level, Mean: 6.02E-14
  N-palmitoyl GABA level, Mean: 6.41E-12
  N-palmitoyl alanine level, Mean: 3.07E-12
  N-palmitoyl ethanolamine level, Mean: 6.28E-11
  N-palmitoyl glycine level, Mean: 1.47E-11
  N-palmitoyl leucine level, Mean: 1.11E-12
  N-palmitoyl methionine level, Mean: 7.37E-13
  N-palmitoyl phenylalanine level, Mean: 1.09E-12
  N-palmitoyl proline level, Mean: BDL
  N-palmitoyl serine level, Mean: 2E-11
  N-palmitoyl tryptophan level, Mean: BDL
  N-palmitoyl tyrosine level, Mean: 5.77E-13
  N-palmitoyl valine level, Mean: 1.73E-13
  N-stearoyl GABA level, Mean: 7.1E-12
  N-stearoyl alanine level, Mean: 1.5E-12
  N-stearoyl ethanolamine level, Mean: 2.63E-11
  N-stearoyl glycine level, Mean: 4.43E-12
  N-stearoyl leucine level, Mean: 7.24E-13
  N-stearoyl methionine level, Mean: 8.45E-13
  N-stearoyl phenylalanine level, Mean: 9.56E-13
  N-stearoyl proline level, Mean: BDL
  N-stearoyl serine level, Mean: 3.14E-11
  N-stearoyl tryptophan level, Mean: BDL
  N-stearoyl tyrosine level, Mean: 7.69E-14
  Oleic acid level, Mean: 1.94E-10
  PGE2 level, Mean: 1.11E-10
  PhosphoLEA level, Mean: 7.34E-13
  THC level, Mean: BDL
[1]
  N-arachidonoyl GABA Direction (relative to Veh): ↓
  N-arachidonoyl GABA Magnitude (x Veh level): 0.68 x Veh level
  PGF2α Direction (relative to Veh): ↓
  PGF2α Magnitude (x Veh level): 0.74 x Veh level
[2]
  N-palmitoyl leucine, Direction (relative to Veh): ↑
  N-palmitoyl leucine, Magnitude (x Veh level): 1.44 x Veh level
[3]
  6-ketoPGF1α Direction (relative to Veh): ↓
  6-ketoPGF1α Magnitude (x Veh level): 0.70 x Veh level
[4]
  N-arachidonoyl taurine Direction (relative to Veh): ↓
  N-arachidonoyl taurine Magnitude (x Veh level): 0.83 x Veh level
[5]
  N-palmitoyl tyrosine Magnitude (x Veh level): 1.23 x Veh level
  N-palmitoyl tyrosine, Direction (relative to Veh): ↑
[6]
  N-arachidonoyl tyrosine, Direction (relative to Veh): ↓
  N-arachidonoyl tyrosine, Magnitude (x Veh level): 0.74 x Veh level
[7]
  N-arachidonoyl serine Direction (relative to Veh): ↓
  N-arachidonoyl serine Magnitude (x Veh level): 0.80 x Veh level
[8]
  PGE2 Direction (relative to Veh): ↓
  PGE2 Magnitude (x Veh level): 0.73 x Veh level
[9]
  2-linoleoyl glycerol Direction (relative to Veh): ↓
  2-linoleoyl glycerol Magnitude (x Veh level): 0.74 x Veh level
[10]
  Oleic acid, Direction (relative to Veh): ↓
  Oleic acid, Magnitude (x Veh level): 0.84 x Veh level
[11]
  N-arachidonoyl phenylalanine, Direction (relative to Veh): ↑
  N-arachidonoyl phenylalanine, Magnitude (x Veh level): 1.40 x Veh level
[12]
  N-oleoyl methionine, Direction (relative to Veh): ↓
  N-oleoyl methionine, Magnitude (x Veh level): 0.68 x Veh level
[13]
  Linoleic acid, Direction (relative to Veh): ↓
  Linoleic acid, Magnitude (x Veh level): 0.81 x Veh level
PND 50, 3 mg/kg CP 55,940, one-way ANOVA p .046
  2-oleoyl glycerol, Direction (relative to Veh): ↓
